Experiments:
[1] = test system: human colon cancer (HCT-116) cell line; experiment: Cytotoxicity assay (MTT), HCT-116; type: cell-based; details: 24 h treatment
Experimental: (§1) The cytotoxic activity was determined against human colon cancer (HCT-116), human non-small-cell lung carcinoma (NCI-H1650), and human ovarian cancer (A2780) cell lines which were bought from the Cell Bank of Shanghai Institute of Cell Biology (Chinese Academy of Sciences) and originally obtained from the American Type Culture Collection (ATCC, Rockville, MD, USA). Cells were grown in RPMI 1640 (GIBCO, New York, NY, USA) supplemented with 10% fetal calf serum (Life Technologies, Carlsbad, CA, USA), penicillin G (100 U/mL), and streptomycin (100 μg/mL) at 37 °C in a 5% CO2 and seeded in 96-well plates (CLS3635, Corning®, Sigma, Santa Clara, CA, USA) at a cell density of 3000 per well over night, and then were treated with various diluted concentrations (each concentration was arranged triple) of compounds 1–19, which were prepared with DMSO (Sigma) to 100 μM stock solution and stored in −20 °C in advance. After 24 h of treatment, 10 μL of MTT (5 mg/mL in PBS) was then added directly to all wells and the plates were placed in the dark at 37 °C for 3 h incubation. Cell viability was measured by observing absorbance at 570 nm on a SpectraMax^190 microplate reader (Molecular Devices, Silicon Valley, CA, USA). IC50 values were calculated using Microsoft Excel software (version 2010, Redmond, WA, USA). Taxol was used as a positive control.

[2] = test system: human ovarian cancer (A2780) cell line; experiment: Cytotoxicity assay (MTT), A2780; type: cell-based; details: 24 h treatment
Experimental: as §1

[3] = test system: human non-small-cell lung carcinoma (NCI-H1650) cell line; experiment: Cytotoxicity assay (MTT), NCI-H1650; type: cell-based; details: for IC50: Homo sapiens, NCI-H1650, MTT, 24 h treatment
Experimental: as §1

[4] = test system: LPS-induced NO production in RAW264.7 macrophages; experiment: LPS-induced nitric oxide (NO) production in RAW264.7 macrophages (Griess); type: cell-based; details: Mus musculus, LPS 1 μg/mL, 18 h, read-out: IC50 against LPS-induced NO production
Experimental: The RAW 264.7 macrophages were cultured in The RPMI 1640 medium (Hyclone, Logan, UT, USA) containing 10% FBS. The compounds were dissolved in DMSO and further diluted in medium to produce different concentrations. The cell mixture and culture medium were dispensed into 96-well plates (2 × 10^5 cells/well) and maintained at 37 °C under 5% CO2. After preincubation for 24 h, serial dilutions of the test compounds were added into the cells, up to the maximum concentration 25 μM, then added with LPS to a concentration 1 μg/mL and continued to incubate for 18 h. The amount of NO was assessed by determined the nitrite concentration in the cultured RAW264.7 macrophage supernatants with Griess reagent. Aliqueots of supernatants (100 μL) were incubated, in sequence, with 50 μL 1% sulphanilamide and 50 μL 1% naphthylethylenediamine in 2.5% phosphoric acid solution. The sample absorbance was measured at 570 nm by a 2104 Envision Multilabel Plate Reader (PerkinElmer, Inc., Waltham, MA, USA). Dexamethasone was used as a positive control.

[5] = biological target: T1, human protein tyrosine phosphatase 1B (GST-hPTP1B) (Homo sapiens, UniProt P18031); experiment: PTP1B inhibition assay (p-NPP dephosphorylation); type: biochemical; details: 3 mM p-NPP, HEPES pH 7.0, 30 °C, 10 min; read-out: IC50 against PTP1B
T1 construct: GST; made in house
T1 sequence (P18031 1-435): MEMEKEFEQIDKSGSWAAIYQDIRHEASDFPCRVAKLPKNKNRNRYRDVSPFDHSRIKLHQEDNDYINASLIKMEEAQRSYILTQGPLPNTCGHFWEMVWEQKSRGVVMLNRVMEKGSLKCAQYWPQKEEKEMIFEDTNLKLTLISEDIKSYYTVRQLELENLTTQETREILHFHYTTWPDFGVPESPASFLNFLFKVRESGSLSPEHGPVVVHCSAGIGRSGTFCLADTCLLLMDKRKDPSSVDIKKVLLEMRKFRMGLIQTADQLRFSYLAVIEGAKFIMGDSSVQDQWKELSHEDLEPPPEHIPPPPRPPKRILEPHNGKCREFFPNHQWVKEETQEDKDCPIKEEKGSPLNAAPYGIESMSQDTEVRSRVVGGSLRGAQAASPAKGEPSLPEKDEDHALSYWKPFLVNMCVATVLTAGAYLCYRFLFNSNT
Experimental: The dephosphorylation of para-nitrophenyl phosphate (p-NPP) was catalyzed to para-nitrophenol by PTP1B. Enzyme activity involving an end-point assay, which intensified the yellow color, was measured at a wavelength of 405 nm. All compounds were dissolved in 100% dimethyl sulfoxide (DMSO), and reactions, including controls, were performed at a final concentration of 10% DMSO. Selected compounds were first evaluated for their ability to inhibit the PTPase reaction at a 10 μM concentration at 30 °C for 10 min, in a reaction system with 3 mM p-NPP in HEPES assay buffer (pH 7.0). The reaction was initiated by addition of the enzyme and quenched by addition of 1 M NaOH. The amount of the produced p-nitrophenol was determined at 405 nm using a microplate spectrophotometer (uQuant, Bio-Tek, Winooski, VT, USA). IC50 values were evaluated using a sigmoidal dose-response (variable slope) curve-fitting program of GraphPad Prism 4.0 software (La Jolla, CA, USA). Oleanolic acid was used as a positive control.

IC50 [4] [µM] | IC50 [5] [µM] | Compound | IC50 [1] [µM] | IC50 [2] [µM] | IC50 [3] [µM] | folds more active than 8, 9, 13, and 14 ([3]; NCI-H1650 cell line, versus 8, 9, 13 and 14)
– | – | COc1cc(C=CC(=O)OCC2C(C(=O)c3cc(OC)c(O)c(OC)c3)COC2c2cc(OC)c(O)c(OC)c2)ccc1O (single isomer, unassigned; (+)) [Compound 7] | > 20 | > 20 | 2.47 | 4-6 folds
– | – | COc1cc(C=CC(=O)OCC2C(Cc3cc(OC)c(O)c(OC)c3)COC2c2cc(OC)c(O)c(OC)c2)cc(OC)c1O (single isomer, unassigned; (+)) [Compound 8] | > 20 | > 20 | 11.2 | –
– | – | COc1cc(C=CC(=O)OCC2C(Cc3cc(OC)c(O)c(OC)c3)COC2c2cc(OC)c(O)c(OC)c2)ccc1O (single isomer, unassigned; (+)) [Compound 13, (+)-9′-O-(E)-feruloyl-5,5′-dimethoxylariciresinol] | > 20 | > 20 | 9.68 | –
– | – | COc1cc(C=CC(=O)OCC2C(Cc3ccc(O)c(OC)c3)COC2c2cc(OC)c(O)c(OC)c2)ccc1O (single isomer, unassigned; (+)) [Compound 14, (+)-9′-O-(E)-feruloyl-5′-methoxylariciresinol] | > 20 | > 20 | 10.5 | –
– | – | COc1cc(CC2COC(c3cc(OC)c(O)c(OC)c3)C2CO)cc(OC)c1O (single isomer, unassigned; (+)) [Compound 15, (+)-5,5′-dimethoxylariciresinol] | > 20 | > 20 | > 20 | –
– | – | COc1cc(CC2COC(c3cc(OC)c(O)c(OC)c3)C2CO)ccc1O (single isomer, unassigned; (+)) [Compound 16, (+)-5′-methoxylariciresinol] | > 20 | > 20 | > 20 | –
– | – | COc1cc([C@@H]2c3c(cc(OC)c(O)c3OC)C=C(C(=O)NCCc3ccc(O)cc3)[C@H]2CO)cc(OC)c1O [Compound 1, (−)-(7′R,8′S)-N-[2-(4-hydroxyphenyl)-ethyl]-4,4′,9′-trihydroxy-3,5,3′,5′-tetramethoxy-2,7′-cyclolignan-7-en-9-amide] | > 20 | > 20 | > 20 | –
– | – | COc1cc(CCNC(=O)[C@@H]2C(C(=O)NCCc3ccc(O)cc3)=Cc3cc(OC)c(O)c(OC)c3[C@H]2c2cc(OC)c(O)c(OC)c2)ccc1O [Compound 2, (−)-(7′R,8′S)-N^1-[2-(4-hydroxyphenyl)-ethyl]-N^2-[2-(4-hydroxy-3-methoxyphenyl)-ethyl]-4,4′-dihydroxy-3,5,3′,5′-tetramethoxy-2,7′-cyclolignan-7-en-9,9′-diamide] | > 20 | > 20 | > 20 | –
– | – | COc1cc(CCNC(=O)C2=Cc3cc(OC)c(O)c(OC)c3[C@@H](c3cc(OC)c(O)c(OC)c3)[C@@H]2C(=O)NCCc2ccc(O)cc2)ccc1O [Compound 3, (−)-(7′R,8′S)-N^1-[2-(4-hydroxy-3-methoxyphenyl)-ethyl]-N^2-[2-(4-hydroxyphenyl)-ethyl]-4,4′-dihydroxy-3,5,3′,5′-tetramethoxy-2,7′-cyclolignan-7-en-9,9′-diamide] | > 20 | > 20 | > 20 | –
50.1 | – | COc1cc(/C=C/C(=O)OC[C@@H](Cc2cc(OC)c(O)c(OC)c2)[C@@H](CO)Cc2cc(OC)c(O)c(OC)c2)ccc1O [Compound 5, (+)-(8S,8′S)-9-O-(E)-feruloyl-5,5′-dimethoxysecoisolariciresinol] | > 20 | > 20 | > 20 | –
58.6 | – | COc1cc(/C=C/C(=O)OC[C@@H](Cc2ccc(O)c(OC)c2)[C@@H](CO)Cc2ccc(O)c(OC)c2)ccc1O [Compound 6, (+)-(8S,8′S)-9-O-(E)-feruloyl-secoisolariciresinol] | > 20 | > 20 | > 20 | –
– | – | COc1cc(C=CC(=O)OCC2C(c3cc(OC)c(O)c(OC)c3)OCC2C(OC)c2cc(OC)c(O)c(OC)c2)ccc1O (stereo not shown) [Compound 9, 9′-O-(E)-Feruloyl-5,7,5′-trimethoxylariciresinol] | > 20 | > 20 | 13.2 | –
– | – | COc1cc([C@@H]2c3c(cc(OC)c(O)c3OC)C=C(C(=O)NCCc3ccc(O)cc3)[C@H]2C(=O)NCCc2ccc(O)cc2)cc(OC)c1O [Compound 10, 1,2-dihydro-6,8-dimethoxy-7-hydroxy-1-(3,5-dimethoxy-4-hydroxyphenyl)-N^1,N^2-bis-[2-(4-hydroxypeenyl)ethyl]-2,3-naphthalene dicarboxamide] | > 20 | > 20 | > 20 | –
47.5 | 13.5 | COc1cc(/C=C/C(=O)OC[C@@H](Cc2cc(OC)c(O)c(OC)c2)[C@@H](COC(=O)/C=C/c2ccc(O)c(OC)c2)Cc2cc(OC)c(O)c(OC)c2)ccc1O [Compound 11, (+)-9,9′-O-di-(E)-feruloyl-5,5′-dimethoxy secoisolariciresinol] | > 20 | > 20 | > 20 | –
66.5 | – | COc1cc(/C=C/C(=O)OC[C@@H](Cc2ccc(O)c(OC)c2)[C@@H](COC(=O)/C=C/c2ccc(O)c(OC)c2)Cc2ccc(O)c(OC)c2)ccc1O [Compound 12, (+)-9,9′-O-di-(E)-feruloyl-secoisolariciresinol] | > 20 | > 20 | > 20 | –
– | – | COc1cc(C[C@H]2C(=O)OC[C@@H]2Cc2ccc(OC)c(OC)c2)ccc1O [Compound 17, arctigenin] | 3.25 | 0.28 | > 20 | –
– | – | COc1cc(C[C@H]2COC(=O)[C@@H]2Cc2ccc(O)c(OC)c2)ccc1O [Compound 18, matairesinol] | 14 | 1.53 | > 20 | –
– | – | COc1cc(C=C2C(=O)OCC2Cc2ccc(OC)c(OC)c2)ccc1O (stereo not shown) [Compound 19, (7E,8R′)-didehydroarctigenin] | 18.5 | 12.8 | > 20 | –
9.5 | – | C[C@@H]1C[C@H]2[C@@H]3CCC4=CC(=O)C=C[C@]4(C)[C@@]3(F)[C@@H](O)C[C@]2(C)[C@@]1(O)C(=O)CO [Dexamethasone, reference compound] | – | – | – | –
– | – | CC(=O)O[C@H]1C(=O)[C@@]2(C)[C@H]([C@H](OC(=O)c3ccccc3)[C@]3(O)C[C@H](OC(=O)[C@H](O)[C@@H](NC(=O)c4ccccc4)c4ccccc4)C(C)=C1C3(C)C)[C@]1(OC(C)=O)CO[C@@H]1C[C@@H]2O [Taxol, reference compound] | 0.005 | 0.02 | 1.28 | –
